Source: patent US8652846B2, “Medium derived from stem cells as a pharmaceutical composition” (Omnicyte Limited, priority 2008, dated 2014)

Legend:
Rat liver cells [1] = assay: Bilirubin levels of liver cells exposed to thioacetamide, OmniCytes without cell contact; type: cell-based; details: liver cells exposed to TAA only
Experimental: (§1) Rat liver cells were exposed to the hepatotoxin thioacetamide (TAA), which induces liver damage such as cirrhosis and fibrosis. The control was only exposed to TAA, whereas the experimental group was also exposed to OmniCytes without cell contact. Cell viability (expressed as mitochondrial dehydrogenase activity) was assessed.
Liver function was also assayed by measuring bilirubin levels. Aberrantly high levels of bilirubin are typically indicative of a liver disorder or malfunction.

Rat liver cells [2] = assay: Viability of liver cells exposed to thioacetamide (mitochondrial dehydrogenase activity), OmniCytes without cell contact; type: cell-based; details: rat liver cells exposed to TAA only
Experimental: as §1

A549 lung cancer cells = assay: TNF-alpha blocking antibody study: A549 cells with staurosporine and OmniCytes without direct cell contact; type: cell-based, human; details: A549, control: staurosporine, OmniCyte-free
Experimental: The effect of TNF-alpha blocking antibodies was tested. A549 lung cancer cells were exposed to staurosporine and OmniCytes were added without direct cell contact. The control was OmniCyte-free. TNF-alpha blocking antibodies (Abeam™, Cambridge, UK) at two different concentrations (5 or 10 μg/mL) were added.

[3] = tested on: A549 lung cancer cell line; assay: Apoptosis of A549 cells co-cultured with OmniCytes (direct cell contact), FACS Annexin V/7-AAD; type: cell-based, human; details: A549, control group: staurosporine alone, plate without membrane
Experimental: (§2) Human non-small-cell lung cancer line A549 was obtained from American Type Culture Collection (catalogue number CCL-185, Rockville, Md., USA) and grown in Ham's F 12-K medium supplemented with 10% fetal bovine serum and 1% penicillin/streptomycin in a 37° C. humidified incubator with 5% CO2.
(§3) 3×10^5 cancer cells were plated into the bottom of 24 mm Transwell 6 well plates with or without […] pore polycarbonate membrane insert (Corning Life Sciences, USA) with 2 mL of the appropriate cell culture medium. […]
(§4) To determine effect of OmniCytes on apoptosis, 3×10^5 OmniCytes were added 24 hours after the onset of apoptosis induction either to the top of the Transwell insert with 1 ml α-MEM (Gibco, UK) supplemented with 30% FBS (Gibco, UK) and 10% GM-MIX (for no contact conditions) or directly into the same well as the cells (for contact conditions). […] After 24 or 48 hours the inserts were removed and the cancer cells analysed for apoptosis and Bcl-2, Bcl-xL and Bax expression.
(§5) Apoptosis was analysed using the method of staining with fluorescein isothiocyanate (FITC)-Annexin V and 7-AAD-FITC previously described by Ikewaki et al. (2007). […] FITC-Annexin V staining was measured in FL1-H and FITC-7-AAD staining in FL3-H. […]

[4] = tested on: A549 lung cancer cell line; assay: Apoptosis of A549 cells with OmniCytes in Transwell assay (no cell contact), DAPI nuclear staining, immuno-fluorescent microscopy; type: cell-based, human; details: A549, control group: staurosporine alone
Experimental: 3×10^5 cancer cells were plated into the bottom of 24 mm Transwell 6 well plates with or without […] pore polycarbonate membrane insert (Corning Life Sciences, USA) with 2 mL of the appropriate cell culture medium. Transwell plates with a polycarbonate membrane insert allow the exchange of soluble factors but prevent cell-cell contact, whereas Transwell plates without the membrane allow cell to cell contact. After 24 hours apoptosis was induced in cancer cells according to the designated protocol. Cells were incubated at 37° C. in 5% CO2/95% air. […]
as §4
10^5 cells were fixed using 4% paraformaldehyde (PFA) for 15 minutes at room temperature and washed 3 times with PBS (Gibco, UK). […] Cells were visualised on a Zeiss fluorescent microscope and analysed using the Metamorph programme. […]
For each sample, a minimum of 5 random fields were assessed and at least 250 cells were counted. […]

[5] = tested on: A549 lung cancer cell line; assay: Apoptosis of A549 cells with OmniCytes in Transwell assay (no cell contact), FACS Annexin V/7-AAD; type: cell-based, human; details: A549, control group: staurosporine alone, Transwell with membrane
Experimental: as §2, §3, §4, §5

Row | SMILES | bilirubin levels (Rat liver cells [1]) | cell viability (mitochondrial dehydrogenase activity) (Rat liver cells [2]) | apoptosis (A549 lung cancer cells) | mean of apoptosis (Annexin V positive cells) [3] | apoptosis by nuclear staining (DAPI) [4] | apoptosis (Annexin V positive cells) [5]
1 | CC(=N)S [TAA, thioacetamide] | caused bilirubin levels to rise | significantly decreased cell viability |  |  |  | 
2 | CN[C@@H]1C[C@H]2O[C@@](C)([C@@H]1OC)n1c3ccccc3c3c4c(c5c6ccccc6n2c5c31)C(=O)NC4 [staurosporine] |  |  | 22.13%±0.74 | 22.77%±4.87 | 18.32%±1.81 | 26.85%±2.15
